As a reminder, the IC50 is the concentration that gives 50% inhibition. The low end stands for greater potency, the high end for weaker potency.

For one experiment, the target named is CDK4 (Homo sapiens, UniProt P11802). Kind of experiment: radiometric kinase assay. In kind it is biochemical.
In the next experiment the target is CDK6 (Homo sapiens, UniProt Q00534). Kind of experiment: radiometric kinase assay. It counts as biochemical.
Chain of CDK6 (Q00534 whole entry): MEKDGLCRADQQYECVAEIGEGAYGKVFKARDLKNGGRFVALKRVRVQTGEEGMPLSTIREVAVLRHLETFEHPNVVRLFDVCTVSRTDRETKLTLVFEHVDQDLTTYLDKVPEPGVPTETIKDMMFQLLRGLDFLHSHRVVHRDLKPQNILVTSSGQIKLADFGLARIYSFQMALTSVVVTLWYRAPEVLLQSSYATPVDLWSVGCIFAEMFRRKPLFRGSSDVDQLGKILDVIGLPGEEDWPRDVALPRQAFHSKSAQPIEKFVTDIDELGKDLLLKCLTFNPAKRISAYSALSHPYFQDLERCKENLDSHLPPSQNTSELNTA

Chain of CDK4 (P11802 2-303): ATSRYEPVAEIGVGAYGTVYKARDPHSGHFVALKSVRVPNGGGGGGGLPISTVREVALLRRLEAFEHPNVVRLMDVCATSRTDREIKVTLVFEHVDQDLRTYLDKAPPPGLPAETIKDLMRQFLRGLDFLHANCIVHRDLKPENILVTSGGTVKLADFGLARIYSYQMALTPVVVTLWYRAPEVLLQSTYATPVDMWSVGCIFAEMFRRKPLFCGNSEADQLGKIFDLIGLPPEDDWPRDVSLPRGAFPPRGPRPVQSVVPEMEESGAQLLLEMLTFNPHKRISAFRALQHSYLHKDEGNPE

For `O=C(O)CN(CC(=O)O)Cc1cc2c(cc1O)Oc1cc(O)c(CN(CC(=O)O)CC(=O)O)cc1C21OC(=O)c2ccccc21` [calcein, 4′5′-bis(N, N-bis(carboxymethyl)aminomethyl) fluorescein], the “radiometric kinase assay (GST-Rb substrate) on CDK4 immunoprecipitated from HCT1” value on CDK4 was ~ 75 μM. On CDK6, this compound came in with a concentration for half-maximal inhibition (IC50) of 75 µM.

(Values after PMC3361763 (2011).)
